Measurements as given in the supplement of paper PMC10307832.

How the values were obtained:
Assay in all cases: relative viability (nuclei count vs DMSO), 5 days (fraction); higher = more cells survive
Vemurafenib + Tozasertib = compound: CCCS(=O)(=O)Nc1ccc(F)c(C(=O)c2c[nH]c3ncc(-c4ccc(Cl)cc4)cc23)c1F [Vemurafenib] + Cc1cc(Nc2cc(N3CCN(C)CC3)nc(Sc3ccc(NC(=O)C4CC4)cc3)n2)n[nH]1 [Tozasertib] (partner 0.1 µM)
In short: (§1)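 Lung cancer cell lines in 1536-well plates got either a single drug or a fixed anchor-drug dose together with five library-drug doses (not always all listed) in √10 steps, by pin tool, on the day after seeding. Nuclei were counted after 5 days, and relative viability is the treated-to-vehicle ratio of nuclei counts. Values are medians of duplicate plates.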

OSI-027 + Bortezomib = compound: COc1cccc2cc(-c3nc([C@H]4CC[C@H](C(=O)O)CC4)n4ncnc(N)c34)[nH]c12 [OSI-027] + CC(C)C[C@H](NC(=O)[C@H](Cc1ccccc1)NC(=O)c1cnccn1)B(O)O [Bortezomib] (partner 0.002 µM)
In short: as §1

Vemurafenib + Foretinib = compound: CCCS(=O)(=O)Nc1ccc(F)c(C(=O)c2c[nH]c3ncc(-c4ccc(Cl)cc4)cc23)c1F [Vemurafenib] + COc1cc2c(Oc3ccc(NC(=O)C4(C(=O)Nc5ccc(F)cc5)CC4)cc3F)ccnc2cc1OCCCN1CCOCC1 [Foretinib] (partner 0.25 µM)
In short: as §1

Alpelisib + Trametinib = compound: Cc1nc(NC(=O)N2CCC[C@H]2C(N)=O)sc1-c1ccnc(C(C)(C)C(F)(F)F)c1 [Alpelisib] + CC(=O)Nc1cccc(-n2c(=O)n(C3CC3)c(=O)c3c(Nc4ccc(I)cc4F)n(C)c(=O)c(C)c32)c1 [Trametinib] (partner 0.02 µM)
In short: as §1

NCI-H2126 showed a relative viability (Vemurafenib + Tozasertib; first compound 0.03162 µM) of 0.812, a relative viability (Vemurafenib + Tozasertib; first compound 0.1 µM) of 0.786 and a relative viability (Vemurafenib + Tozasertib; first compound 1 µM) of 0.809. The relative viability (OSI-027 + Bortezomib; first compound 0.01 µM) was 1.02, the relative viability (OSI-027 + Bortezomib; first compound 0.03162 µM) was 1.13 and the relative viability (OSI-027 + Bortezomib; first compound 0.1 µM) was 1.05. For the same cell line, the relative viability (OSI-027 + Bortezomib; first compound 0.3162 µM) was 0.989, the relative viability (OSI-027 + Bortezomib; first compound 1 µM) was 0.87 and the relative viability (Vemurafenib + Foretinib; first compound 0.03162 µM) was 1.13. The relative viability (Vemurafenib + Foretinib; first compound 0.1 µM) was 0.696, the relative viability (Vemurafenib + Foretinib; first compound 0.3162 µM) was 1.31 and the relative viability (Vemurafenib + Foretinib; first compound 1 µM) was 1.09. The relative viability (Alpelisib + Trametinib; first compound 0.04 µM) was 0.545, the relative viability (Alpelisib + Trametinib; first compound 0.1265 µM) was 0.504 and the relative viability (Alpelisib + Trametinib; first compound 0.4 µM) was 0.526. For the same cell line, the relative viability (Alpelisib + Trametinib; first compound 1.265 µM) was 0.416 and the relative viability (Alpelisib + Trametinib; first compound 4 µM) was 0.381.
With NCI-H2228 the relative viability (Vemurafenib + Tozasertib; first compound 0.03162 µM) was 0.228, the relative viability (Vemurafenib + Tozasertib; first compound 0.1 µM) was 0.234 and the relative viability (Vemurafenib + Tozasertib; first compound 0.3162 µM) was 0.244. The relative viability (Vemurafenib + Tozasertib; first compound 1 µM) was 0.21, the relative viability (OSI-027 + Bortezomib; first compound 0.01 µM) was 0.977 and the relative viability (OSI-027 + Bortezomib; first compound 0.03162 µM) was 1.01. For the same cell line, the relative viability (OSI-027 + Bortezomib; first compound 0.1 µM) was 0.999, the relative viability (OSI-027 + Bortezomib; first compound 1 µM) was 0.65 and the relative viability (Vemurafenib + Foretinib; first compound 0.03162 µM) was 0.845. For the same cell line, the relative viability (Vemurafenib + Foretinib; first compound 0.1 µM) was 0.931, the relative viability (Vemurafenib + Foretinib; first compound 0.3162 µM) was 0.828 and the relative viability (Vemurafenib + Foretinib; first compound 1 µM) was 0.869. The relative viability (Alpelisib + Trametinib; first compound 0.04 µM) was 0.415, the relative viability (Alpelisib + Trametinib; first compound 0.1265 µM) was 0.536 and the relative viability (Alpelisib + Trametinib; first compound 0.4 µM) was 0.399. For the same cell line, the relative viability (Alpelisib + Trametinib; first compound 1.265 µM) was 0.314 and the relative viability (Alpelisib + Trametinib; first compound 4 µM) was 0.123.
For NCI-H2347, the relative viability (Vemurafenib + Tozasertib; first compound 0.03162 µM) was 0.452, the relative viability (Vemurafenib + Tozasertib; first compound 0.1 µM) was 0.53 and the relative viability (Vemurafenib + Tozasertib; first compound 0.3162 µM) was 0.507. It also gave a relative viability (Vemurafenib + Tozasertib; first compound 1 µM) of 0.482, a relative viability (OSI-027 + Bortezomib; first compound 0.01 µM) of 0.857 and a relative viability (OSI-027 + Bortezomib; first compound 0.03162 µM) of 0.904. The relative viability (OSI-027 + Bortezomib; first compound 0.1 µM) was 0.741, the relative viability (OSI-027 + Bortezomib; first compound 0.3162 µM) was 0.601 and the relative viability (OSI-027 + Bortezomib; first compound 1 µM) was 0.493. The relative viability (Vemurafenib + Foretinib; first compound 0.03162 µM) was 0.662, the relative viability (Vemurafenib + Foretinib; first compound 0.1 µM) was 0.91 and the relative viability (Vemurafenib + Foretinib; first compound 0.3162 µM) was 0.843. For the same cell line, the relative viability (Vemurafenib + Foretinib; first compound 1 µM) was 0.811, the relative viability (Alpelisib + Trametinib; first compound 0.04 µM) was 0.29 and the relative viability (Alpelisib + Trametinib; first compound 0.1265 µM) was 0.285. For the same cell line, the relative viability (Alpelisib + Trametinib; first compound 0.4 µM) was 0.394, the relative viability (Alpelisib + Trametinib; first compound 1.265 µM) was 0.244 and the relative viability (Alpelisib + Trametinib; first compound 4 µM) was 0.232.
NCI-H2405 showed a relative viability (Vemurafenib + Tozasertib; first compound 0.03162 µM) of 0.756, a relative viability (Vemurafenib + Tozasertib; first compound 0.1 µM) of 0.708 and a relative viability (Vemurafenib + Tozasertib; first compound 1 µM) of 0.717. For the same cell line, the relative viability (OSI-027 + Bortezomib; first compound 0.01 µM) was 0.982, the relative viability (OSI-027 + Bortezomib; first compound 0.03162 µM) was 1.04 and the relative viability (OSI-027 + Bortezomib; first compound 0.1 µM) was 0.872. The relative viability (OSI-027 + Bortezomib; first compound 0.3162 µM) was 0.866, the relative viability (OSI-027 + Bortezomib; first compound 1 µM) was 0.425 and the relative viability (Vemurafenib + Foretinib; first compound 0.03162 µM) was 1. For the same cell line, the relative viability (Vemurafenib + Foretinib; first compound 0.1 µM) was 1.03, the relative viability (Vemurafenib + Foretinib; first compound 1 µM) was 1.03 and the relative viability (Alpelisib + Trametinib; first compound 0.04 µM) was 0.509. It also gave a relative viability (Alpelisib + Trametinib; first compound 0.1265 µM) of 0.641, a relative viability (Alpelisib + Trametinib; first compound 0.4 µM) of 0.549 and a relative viability (Alpelisib + Trametinib; first compound 1.265 µM) of 0.369. The relative viability (Alpelisib + Trametinib; first compound 4 µM) was 0.381.
Cell Line NCI-H3122 has a relative viability (Vemurafenib + Tozasertib; first compound 0.03162 µM) of 0.398, a relative viability (Vemurafenib + Tozasertib; first compound 0.1 µM) of 0.335 and a relative viability (Vemurafenib + Tozasertib; first compound 0.3162 µM) of 0.371. The relative viability (Vemurafenib + Tozasertib; first compound 1 µM) was 0.365, the relative viability (OSI-027 + Bortezomib; first compound 0.01 µM) was 1.11 and the relative viability (OSI-027 + Bortezomib; first compound 0.03162 µM) was 1.04. For the same cell line, the relative viability (OSI-027 + Bortezomib; first compound 0.1 µM) was 1.11, the relative viability (OSI-027 + Bortezomib; first compound 0.3162 µM) was 1.02 and the relative viability (OSI-027 + Bortezomib; first compound 1 µM) was 0.87. For the same cell line, the relative viability (Vemurafenib + Foretinib; first compound 0.03162 µM) was 0.992, the relative viability (Vemurafenib + Foretinib; first compound 0.1 µM) was 0.957 and the relative viability (Vemurafenib + Foretinib; first compound 0.3162 µM) was 1.02. For the same cell line, the relative viability (Vemurafenib + Foretinib; first compound 1 µM) was 1.07, the relative viability (Alpelisib + Trametinib; first compound 0.04 µM) was 0.201 and the relative viability (Alpelisib + Trametinib; first compound 0.1265 µM) was 0.221. It also gave a relative viability (Alpelisib + Trametinib; first compound 0.4 µM) of 0.172, a relative viability (Alpelisib + Trametinib; first compound 1.265 µM) of 0.181 and a relative viability (Alpelisib + Trametinib; first compound 4 µM) of 0.136.
